According to US20240190892A1, “PLASMA KALLIKREIN INHIBITORS” (Merck Sharp & Dohme LLC, priority 2021, published 2024):

Columns and labels:
Human plasma kallikrein = Human plasma kallikrein (Homo sapiens (Human), UniProt P03952); assay: Plasma Kallikrein Assay; assay type: biochemical; settings: purified Human plasma kallikrein 0.5 nM, substrate Acetyl-K-P-R-AFC, pH 7.4; read-out: PKal IC50
Procedure: (§1) The effectiveness of a compound of the present invention as an inhibitor of plasma kallikrein can be determined using a relevant purified serine protease, and an appropriate synthetic substrate. The rate of hydrolysis of the chromogenic or fluorogenic substrate by the relevant serine protease was measured both in the absence and presence of compounds of the present invention. Assays were conducted at rt or at 37° C. […] A decrease in the rate of fluorescence change in the presence of inhibitor is indicative of enzyme inhibition. Such methods are known to one skilled in the art. The results of this assay are expressed as the half-maximal inhibitory concentrations (IC50), or the inhibitory constant, Ki.
Plasma kallikrein determinations were made in 50 mM HEPES buffer at pH 7.4 containing 150 mM NaCl, 5 mM CaCl2, and 0.1% PEG 8000 (polyethylene glycol; Fisher Scientific). Determinations were made using purified Human plasma kallikrein at a final concentration of 0.5 nM (Enzyme Research Laboratories) and the synthetic substrate, Acetyl-K-P-R-AFC (Sigma #C6608) at a concentration of […].
Activity assays were performed by diluting a stock solution of substrate at least tenfold to a final concentration ≤0.2 Km into a solution containing enzyme or enzyme equilibrated with inhibitor. Times required to achieve equilibration between enzyme and inhibitor were determined in control experiments. The reactions were performed under linear progress curve conditions and fluorescence increase measured at 405 Ex/510 Em nm. Values were converted to percent inhibition of the control reaction (after subtracting 100% Inhibition value). IC50 was determined by inflection point from a four parameter logistic curve fit. Ki was calculated using the Cheng Prusoff equation, Ki=IC50/(1+[S]/Km)).

Coagulation factor XIa = Coagulation factor XIa (Homo sapiens (Human), UniProt P03951); assay: Factor XIa Assay; assay type: biochemical; settings: human factor XIa 0.04 nM, substrate GPR-AFC, 30 min pre-incubation at 25° C., pH 7.4; read-out: FXIa IC50
Procedure: as §1, with “Coagulation factor XIa” for “plasma kallikrein”
Compounds were pre-incubated for 30 min at 25° C. with human (0.04 nM) factor XIa in 50 mM HEPES buffer with 150 mM sodium chloride, 5 mM calcium chloride, 0.1% PEG 8000, pH 7.4. factor XIa enzymatic activity was determined by addition of the substrate glycine-proline-arginine-7-amido-4-trifluoromethylcoumarin (GPR-AFC) and measurement of the fluorescence at 400/505 nm after a 60 min incubation at 25° C. The % inhibition for each data point was calculated from the data and analyzed using the log (inhibitor) vs. response four parameters equation to determine the half-maximal inhibitory concentrations (IC50). The IC50 were converted to equilibrium inhibitory constants (Ki) using the Cheng-Prusoff equation.

Sequence of Human plasma kallikrein (P03952 391-638 limits assumed): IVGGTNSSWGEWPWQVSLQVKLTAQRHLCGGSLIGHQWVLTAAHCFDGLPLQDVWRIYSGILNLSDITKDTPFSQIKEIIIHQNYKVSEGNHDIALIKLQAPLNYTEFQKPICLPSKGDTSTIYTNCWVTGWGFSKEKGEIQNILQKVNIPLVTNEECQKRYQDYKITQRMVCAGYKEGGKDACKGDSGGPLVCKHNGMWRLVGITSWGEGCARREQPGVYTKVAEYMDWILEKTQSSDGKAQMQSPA
Sequence of Human plasma kallikrein (P03952 20-390 partner limits assumed): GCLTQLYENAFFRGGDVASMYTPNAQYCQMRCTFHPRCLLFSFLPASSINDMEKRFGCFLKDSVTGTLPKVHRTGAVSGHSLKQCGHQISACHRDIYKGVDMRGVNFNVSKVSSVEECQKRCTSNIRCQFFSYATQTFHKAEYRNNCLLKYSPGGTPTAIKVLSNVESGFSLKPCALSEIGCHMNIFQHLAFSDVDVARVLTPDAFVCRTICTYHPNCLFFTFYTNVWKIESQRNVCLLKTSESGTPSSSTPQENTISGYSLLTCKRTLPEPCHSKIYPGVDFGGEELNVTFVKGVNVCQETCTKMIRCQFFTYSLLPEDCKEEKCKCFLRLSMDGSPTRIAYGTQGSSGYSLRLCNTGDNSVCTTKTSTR
Sequence of Coagulation factor XIa (P03951 388-625 limits assumed): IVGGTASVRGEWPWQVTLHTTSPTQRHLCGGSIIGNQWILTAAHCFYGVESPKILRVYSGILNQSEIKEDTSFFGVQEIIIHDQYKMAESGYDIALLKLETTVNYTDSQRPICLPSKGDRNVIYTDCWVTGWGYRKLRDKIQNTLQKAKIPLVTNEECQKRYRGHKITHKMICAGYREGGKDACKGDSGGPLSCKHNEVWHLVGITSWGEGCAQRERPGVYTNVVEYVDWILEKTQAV
Sequence of Coagulation factor XIa (P03951 19-387 partner limits assumed): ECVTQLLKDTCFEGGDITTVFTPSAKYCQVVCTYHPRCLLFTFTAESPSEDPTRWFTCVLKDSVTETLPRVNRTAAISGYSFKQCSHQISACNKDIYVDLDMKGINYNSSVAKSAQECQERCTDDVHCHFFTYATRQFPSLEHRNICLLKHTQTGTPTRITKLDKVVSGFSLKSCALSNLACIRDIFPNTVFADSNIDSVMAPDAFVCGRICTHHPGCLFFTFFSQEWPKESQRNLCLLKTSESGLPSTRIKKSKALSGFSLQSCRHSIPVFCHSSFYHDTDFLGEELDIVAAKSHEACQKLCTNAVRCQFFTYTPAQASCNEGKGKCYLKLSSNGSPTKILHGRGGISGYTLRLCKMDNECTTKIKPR

SMILES | IC50 (Human plasma kallikrein) [nM] | IC50 (Coagulation factor XIa) [nM]
O=C1Nc2ccc(Cl)c(F)c2[C@]2(CCN(c3cc(C(=O)NCc4ccc(N5CCC(C(F)(F)F)C5)nc4)cnn3)C2)O1 (stereo in doubt) [Example 9, (S)-6-(6-Chloro-5-fluoro-2-oxo-1,2-dihydrospiro[benzo[d][1,3]oxazine-4,3′-pyrrolidin]-1′-yl)-N-((6-(3-(trifluoromethyl)pyrrolidin-1-yl)pyridin-3-yl)methyl)pyridazine-4-carboxamide] | 7.5 | 10000
CN1CCCC1c1ccc(CNC(=O)c2cnnc(N3CC[C@]4(C3)OC(=O)Nc3ccc(Cl)c(F)c34)c2)cc1 (stereo in doubt) [Example 10, (S)-6-(6-Chloro-5-fluoro-2-oxo-1,2-dihydrospiro[benzo[d][1,3]oxazine-4,3′-pyrrolidin]-1′-yl)-N-(4-(1-methylpyrrolidin-2-yl)benzyl)pyridazine-4-carboxamide] | 2.5 | 10000
CN1CCCC1c1ccc(CNC(=O)c2cnnc(N3CC[C@]4(C3)OC(=O)Nc3ccc(Cl)c(F)c34)c2)cn1 (stereo in doubt) [Example 11, (S)-6-(6-Chloro-5-fluoro-2-oxo-1,2-dihydrospiro[benzo[d][1,3]oxazine-4,3′-pyrrolidin]-1′-yl)-N-((6-(1-methylpyrrolidin-2-yl)pyridin-3-yl)methyl)pyridazine-4-carboxamide] | 3.9 | 10000
O=C1Nc2ccc(Cl)c(F)c2[C@]2(CCN(c3cncc(C(=O)NCc4ccc(N5CCCC5)nc4)n3)C2)O1 [Example 2, (S)-6-(6-Chloro-5-fluoro-2-oxo-1,2-dihydrospiro[benzo[d][1,3]oxazine-4,3′-pyrrolidin]-1′-yl)-N-((6-(pyrrolidin-1-yl)pyridin-3-yl)methyl)pyrazine-2-carboxamide] | 6.8 | 10000
O=C1Nc2ccc(Cl)c(F)c2[C@]2(CCN(c3cc(C(=O)NCc4ccc(N5CC[C@H](F)C5)nc4)cnn3)C2)O1 [Example 5, (S)-6-(6-Chloro-5-fluoro-2-oxo-1,2-dihydrospiro[benzo[d][1,3]oxazine-4,3′-pyrrolidin]-1′-yl)-N-((6-((S)-3-fluoropyrrolidin-1-yl)pyridin-3-yl)methyl)pyridazine-4-carboxamide] | 3 | 5650
O=C1Nc2ccc(Cl)c(F)c2[C@]2(CCN(c3cc(C(=O)NCc4ccc(N5CCC(F)(F)C5)cc4F)cnn3)C2)O1 [Example 8, (S)-6-(6-Chloro-5-fluoro-2-oxo-1,2-dihydrospiro[benzo[d][1,3]oxazine-4,3′-pyrrolidin]-1′-yl)-N-(4-(3,3-difluoropyrrolidin-1-yl)-2-fluorobenzyl)pyridazine-4-carboxamide] | 30.4 | 10000
CN1CC(F)(F)C[C@H]1c1ccc(CNC(=O)c2cnnc(N3CCC4(C3)OC(=O)Nc3ccc(Cl)c(F)c34)c2)cc1 (stereo partly drawn) [Example 12, (S)-6-(6-Chloro-5-fluoro-2-oxo-1,2-dihydrospiro[benzo[d][1,3]oxazine-4,3′-pyrrolidin]-1′-yl)-N-(4-(4,4-difluoro-1-methylpyrrolidin-2-yl)benzyl)pyridazine-4-carboxamide] | 39.6 | 10000
O=C1Nc2ccc(Cl)c(F)c2[C@]2(CCN(c3cncc(C(=O)NCc4ccc(Cn5ccccc5=O)nc4)n3)C2)O1 [Example 14, (S)-6-(6-Chloro-5-fluoro-2-oxo-1,2-dihydrospiro[benzo[d][1,3]oxazine-4,3′-pyrrolidin]-1′-yl)-N-((6-((2-oxopyridin-1(2H)-yl)methyl)pyridin-3-yl)methyl)pyrazine-2-carboxamide] | 1.6 | 10000

The next lines start with the values.

IC50 (Human plasma kallikrein) [nM] | IC50 (Coagulation factor XIa) [nM] | SMILES
81.6 | 10000 | CN1CC(F)(F)CC1c1ccc(CNC(=O)c2cnnc(N3CC[C@]4(C3)OC(=O)Nc3ccc(Cl)c(F)c34)c2)cn1 (stereo in doubt) [Example 13, (S)-6-(6-Chloro-5-fluoro-2-oxo-1,2-dihydrospiro[benzo[d][1,3]oxazine-4,3′-pyrrolidin]-1′-yl)-N-((6-(4,4-difluoro-1-methylpyrrolidin-2-yl)pyridin-3-yl)methyl)pyridazine-4-carboxamide]
19.3 | 10000 | C[C@H]1CCN(c2ccc(CNC(=O)c3cncc(N4CC[C@]5(C4)OC(=O)Nc4ccc(Cl)c(F)c45)n3)cn2)C1 [Example 1, (S)-6-(6-Chloro-5-fluoro-2-oxo-1,2-dihydrospiro[benzo[d][1,3]oxazine-4,3′-pyrrolidin]-1′-yl)-N-((6-((S)-3-methylpyrrolidin-1-yl)pyridin-3-yl)methyl)pyrazine-2-carboxamide]
9.5 | 10000 | C[C@H]1CCN(c2ccc(CNC(=O)c3cncc(N4CC[C@]5(C4)OC(=O)Nc4ccc(Cl)c(F)c45)c3)cn2)C1 [Example 3, (S)-5-(6-Chloro-5-fluoro-2-oxo-1,2-dihydrospiro[benzo[d][1,3]oxazine-4,3′-pyrrolidin]-1′-yl)-N-((6-((S)-3-methylpyrrolidin-1-yl)pyridin-3-yl)methyl)nicotinamide]
1.2 | 7440 | C[C@H]1CCN(c2ccc(CNC(=O)c3cnnc(N4CC[C@]5(C4)OC(=O)Nc4ccc(Cl)c(F)c45)c3)cn2)C1 [Example 4, (S)-6-(6-Chloro-5-fluoro-2-oxo-1,2-dihydrospiro[benzo[d][1,3]oxazine-4,3′-pyrrolidin]-1′-yl)-N-((6-((S)-3-methylpyrrolidin-1-yl)pyridin-3-yl)methyl)pyridazine-4-carboxamide]
4 | 10000 | O=C1Nc2ccc(Cl)c(F)c2[C@]2(CCN(c3cc(C(=O)NCc4ccc(N5CCC(F)(F)C5)nc4)cnn3)C2)O1 [Example 6, (S)-6-(6-Chloro-5-fluoro-2-oxo-1,2-dihydrospiro[benzo[d][1,3]oxazine-4,3′-pyrrolidin]-1′-yl)-N-((6-(3,3-difluoropyrrolidin-1-yl)pyridin-3-yl)methyl)pyridazine-4-carboxamide]
33.5 | 10000 | O=C1Nc2ccc(Cl)c(F)c2[C@]2(CCN(c3cc(C(=O)NCc4ccc(N5CCC(F)(F)C5)c(F)c4)cnn3)C2)O1 [Example 7, (S)-6-(6-Chloro-5-fluoro-2-oxo-1,2-dihydrospiro[benzo[d][1,3]oxazine-4,3′-pyrrolidin]-1′-yl)-N-(4-(3,3-difluoropyrrolidin-1-yl)-3-fluorobenzyl)pyridazine-4-carboxamide]
0.6 | 10000 | O=C1Nc2ccc(Cl)c(F)c2[C@]2(CCN(c3cncc(C(=O)NCc4ccc(Cn5ccccc5=O)nc4)c3)C2)O1 [Example 15, (S)-5-(6-Chloro-5-fluoro-2-oxo-1,2-dihydrospiro[benzo[d][1,3]oxazine-4,3′-pyrrolidin]-1′-yl)-N-((6-((2-oxopyridin-1(2H)-yl)methyl)pyridin-3-yl)methyl)nicotinamide]
50 | 10000 | O=C1Nc2ccc(Cl)c(F)c2[C@]2(CCN(c3cc(C(=O)NCc4ccc(Cn5ccccc5=O)cc4)ccn3)C2)O1 [Example 16, (S)-2-(6-Chloro-5-fluoro-2-oxo-1,2-dihydrospiro[benzo[d][1,3]oxazine-4,3′-pyrrolidin]-1′-yl)-N-(4-((2-oxopyridin-1(2H)-yl)methyl)benzyl)isonicotinamide]
